Consider 1 molecule from EP4463162B1, “CONNEXIN 43 FOR USE IN TREATING BRCA1/2-MUTATED CANCER” (Fundación Profesor Novoa Santos, priority 2022, dated 2023).

Test [1] has as its system γH2AX (p-Ser139). Nature of the test: Western blot and immunofluorescence against γH2AX. In kind it is cell-based, human. The settings on record: Cx43_HCC1937, 50/100 µM olaparib, 96 h, vs basal condition and same treatments in EV_HCC1937. The method, then: 2 000-10 000 cells were plated on glass coverslips (Thermo Fisher Scientific) previously coated with poly-D-lysine hydrobromide (Sigma-Aldrich) and cultured until they were approximately 80 % confluent. They were washed with PBS, fixed with 4 % paraformaldehyde (PFA, Sigma-Aldrich) in PBS for 15 min at room temperature and rinsed twice with PBS. Next, cells were incubated with 0.1 M glycine (Sigma-Aldrich) in distilled water to quench PFA for 10 min at room temperature, and then their membranes were permeabilized with 0.2 % Triton X-100 (Sigma-Aldrich) in PBS for 10 min at room temperature. After two 5 min PBS washes, potential nonspecific antibody binding sites were blocked with 1 % bovine serum albumin (BSA; Sigma-Aldrich) diluted in PBST (PBS+0.1 % Tween 20; Sigma-Aldrich) for 30 min at room temperature. Cells were incubated overnight at 4 °C in the dark with primary antibody (see references in Table 3) diluted in 1 % BSA in PBST. […]
Protein extracts were mixed with loading buffer, which consisted of 10 % (v/v) β-mercaptoethanol (Sigma-Aldrich), 10 % SDS, 50 % (v/v) glycerol, 200 mM Tris-HCl pH 6.8 and 0.1 % bromophenol blue (Sigma-Aldrich). […] Ponceau staining and western blot images were analysed and their band intensities quantitated with Image J software.
(In general: A western blot detects proteins with antibodies after separation by electrophoresis.)

The test system of test [2] is HCC1937 cells. The experiment in a line: Colony formation assay. As to conditions: 100 µM olaparib, seven days, upon Cx43 restitution. The class given is cell-based, human. The method, then: For assessing the clonogenic capacity of tumour cells lines, they were plated as single-cell suspensions (5 000-10 000 cells) in 6 or 12-well plates (Corning) and incubated for 6-7 days with media change every 48 h. After this time, they were washed with PBS, fixed with 4 % PFA for 15 min at room temperature and stained with 0.1 % crystal violet dye (Sigma-Aldrich) for 20 min at room temperature. They were then rinsed with PBS, air dried and photographed. The staining was dissolved with 30 % acetic acid for 10 min on a shaker. The eluent was then transferred to a 96-well plate and the absorbance, indicative of colony growth, measured at 570 nm using a NanoQuant microplate reader Infinite M200 (Tecan).
For small extracellular vesicle (sEV) isolation, sEV donor cells were grown in 175 cm^2 flasks (Thermo Fisher Scientific) until 85 % confluence. […] Donor cells final density was calculated, and supernatants derived from the same number of cells were ultracentrifuged at 100 000 x g for 90 min at 4 °C using a Hitachi Ultracentrifuge CP100NX with a P70AT rotor (Hitachi). […]
Cell viability measures were either relativized to untreated controls for each cell line, in order to account for the already reduced proliferation of Cx43-restituted cells (left graph) or reported as raw absorbance values (right graph). […]

On to `O=C(c1cc(Cc2n[nH]c(=O)c3ccccc23)ccc1F)N1CCN(C(=O)C2CC2)CC1` [Olaparib, olaparib], for which the “γH2AX (p-Ser139)” value in test [1] is “significant γH2AX increase”. In addition, the “cell viability (colony formation)” value in test [2] is recorded as “profound decrease in HCC1937 cell viability”.
